Consider eleven compounds from ChEMBL document CHEMBL1145088, “Ascochlorin derivatives as ligands for nuclear hormone receptors” (J Med Chem, 2003).

As a reminder, the IC50 is the concentration at which inhibition is half-maximal. A low value points to inhibition by little substance.

The structures appear in SMILES notation.

The target in one series is T1, Peroxisome proliferator-activated receptor gamma (Homo sapiens) (UniProt P37231).
T1 sequence (whole entry): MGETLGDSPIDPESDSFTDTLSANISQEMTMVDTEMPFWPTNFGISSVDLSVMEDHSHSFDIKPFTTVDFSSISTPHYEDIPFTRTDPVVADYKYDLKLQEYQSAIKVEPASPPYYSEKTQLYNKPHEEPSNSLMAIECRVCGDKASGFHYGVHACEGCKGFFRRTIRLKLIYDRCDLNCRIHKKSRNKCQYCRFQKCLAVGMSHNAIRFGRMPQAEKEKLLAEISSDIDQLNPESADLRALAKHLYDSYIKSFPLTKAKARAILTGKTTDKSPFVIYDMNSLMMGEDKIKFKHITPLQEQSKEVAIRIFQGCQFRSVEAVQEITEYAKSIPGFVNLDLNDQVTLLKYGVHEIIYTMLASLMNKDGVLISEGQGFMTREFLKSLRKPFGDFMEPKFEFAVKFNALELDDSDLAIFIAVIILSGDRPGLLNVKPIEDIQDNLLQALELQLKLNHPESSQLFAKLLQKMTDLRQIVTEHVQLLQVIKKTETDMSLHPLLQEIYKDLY
Kind of series: Minimum effective concentration required to activate Peroxisome proliferator activated receptor gamma (PPAR gamma).
`CCOC(=O)COc1c(Cl)c(C)c(C=O)c(OC)c1C/C=C(C)/C=C/[C@@]1(C)[C@H](C)CCC(=O)[C@@H]1C` came in with an MEC of 3 µM.
Same read-out and setting: the same measure for `CC(/C=C/[C@@]1(C)[C@H](C)CCC(=O)[C@@H]1C)=C\Cc1c(O)c(C=O)c(C)c(Cl)c1OC(=O)CCCC(=O)O`: 10 µM.
In turn, `COc1c(C=O)c(C)c(Cl)c(OC(=O)c2cccnc2)c1C/C=C(C)/C=C/[C@@]1(C)[C@H](C)CCC(=O)[C@@H]1C` came in with an MEC of 100 µM.
The same measure, in the same setting: the value for `CC(/C=C/[C@@]1(C)[C@H](C)CCC(=O)[C@@H]1C)=C\Cc1c(O)c(C=O)c(C)c(Cl)c1OC(=O)c1ccncc1` was 10 µM; that for `COc1c(C=O)c(C)c(Cl)c(O)c1C/C=C(\C)CC/C=C(\C)[C@@H]1CC(=O)C(C)(C)O1` was 30 µM; that for `CC(/C=C/[C@@]1(C)[C@H](C)CCC(=O)[C@@H]1C)=C\Cc1c(O)c(C=O)c(C)c(Cl)c1OC(=O)c1cccnc1` was 10 µM.
Turning to `COc1c(C=O)c(C)c(Cl)c(OCC(=O)O)c1C/C=C(C)/C=C/[C@@]1(C)[C@H](C)CCC(=O)[C@@H]1C`, the MEC was determined as 3 µM.
The same measure, in the same setting: the same measure for `CC(/C=C/[C@@]1(C)[C@H](C)CCC(=O)[C@@H]1C)=C\Cc1c(O)c(C=O)c(C)c(Cl)c1OCC(=O)O`: 30 µM.
In the case of `COc1c(C=O)c(C)c(Cl)c(O)c1C/C=C(C)/C=C/[C@@]1(C)[C@H](C)CCC(=O)[C@@H]1C`, the MEC is 10 µM.

A further series addresses T2, Nuclear receptor subfamily 1 group I member 2 (Homo sapiens, UniProt O75469).
T2 sequence (O75469 whole entry): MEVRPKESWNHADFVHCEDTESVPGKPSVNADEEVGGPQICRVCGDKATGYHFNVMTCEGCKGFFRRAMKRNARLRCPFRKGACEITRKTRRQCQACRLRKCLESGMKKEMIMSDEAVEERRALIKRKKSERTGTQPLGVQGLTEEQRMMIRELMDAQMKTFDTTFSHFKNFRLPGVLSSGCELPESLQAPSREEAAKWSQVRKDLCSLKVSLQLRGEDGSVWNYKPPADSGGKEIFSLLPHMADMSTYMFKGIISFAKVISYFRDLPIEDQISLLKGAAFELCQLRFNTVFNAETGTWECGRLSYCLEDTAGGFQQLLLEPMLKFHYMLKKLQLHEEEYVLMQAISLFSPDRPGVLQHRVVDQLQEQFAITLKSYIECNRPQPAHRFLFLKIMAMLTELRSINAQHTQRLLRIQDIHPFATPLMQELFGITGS
Kind of series: Minimum effective concentration required to activate pregnane X receptor (PXR).
Compound `Cc1c(Cl)c2c(c(O)c1C=O)CC(CC(C)(O)/C=C/[C@@]1(C)[C@H](C)CCC3(OCCO3)[C@@H]1C)O2` (stereo partly drawn) yielded an MEC of 3 µM.
As for `CCOC(=O)COc1c(Cl)c(C)c(C=O)c(OC)c1C/C=C(C)/C=C/[C@@]1(C)[C@H](C)CCC(=O)[C@@H]1C`, the MEC was determined as 1 µM.
On the same count and under the same terms, the same measure for `C/C(=C\Cc1c(O)c(C=O)c(C)c(Cl)c1OC(=O)c1cccnc1)CC/C=C(\C)[C@@H]1CC(=O)C(C)(C)O1`: 10 µM; for `CC(/C=C/[C@@]1(C)[C@H](C)CCC(=O)[C@@H]1C)=C\Cc1c(O)c(C=O)c(C)c(Cl)c1OC(=O)CCCC(=O)O`: 1 µM.
Still for that read-out and setting: the same measure for `COc1c(C=O)c(C)c(Cl)c(OC(=O)c2cccnc2)c1C/C=C(C)/C=C/[C@@]1(C)[C@H](C)CCC(=O)[C@@H]1C`: 10 µM.
Still for that read-out and setting: the same measure for `CC(/C=C/[C@@]1(C)[C@H](C)CCC(=O)[C@@H]1C)=C\Cc1c(O)c(C=O)c(C)c(Cl)c1OC(=O)c1ccncc1`: 1 µM; for `COc1c(C=O)c(C)c(Cl)c(O)c1C/C=C(\C)CC/C=C(\C)[C@@H]1CC(=O)C(C)(C)O1`: 1 µM; for `CC(/C=C/[C@@]1(C)[C@H](C)CCC(=O)[C@@H]1C)=C\Cc1c(O)c(C=O)c(C)c(Cl)c1OC(=O)c1cccnc1`: 3 µM.
Consider `COc1c(C=O)c(C)c(Cl)c(OCC(=O)O)c1C/C=C(C)/C=C/[C@@]1(C)[C@H](C)CCC(=O)[C@@H]1C`, for which the MEC is 3 µM.
Still for that read-out and setting: the value for `CC(/C=C/[C@@]1(C)[C@H](C)CCC(=O)[C@@H]1C)=C\Cc1c(O)c(C=O)c(C)c(Cl)c1OCC(=O)O` was 30 µM; that for `COc1c(C=O)c(C)c(Cl)c(O)c1C/C=C(C)/C=C/[C@@]1(C)[C@H](C)CCC(=O)[C@@H]1C` was 1 µM.

A further series relates to U2OS (Homo sapiens). Put plainly: Concentration required for inhibition of U2OS cell growth.
As for `Cc1c(Cl)c2c(c(O)c1C=O)CC(CC(C)(O)/C=C/[C@@]1(C)[C@H](C)CCC3(OCCO3)[C@@H]1C)O2` (stereo partly drawn), the IC50 was found to be 18 µM. This lies in the double-digit micromolar range.
Still for that read-out and setting: the same measure for `CCOC(=O)COc1c(Cl)c(C)c(C=O)c(OC)c1C/C=C(C)/C=C/[C@@]1(C)[C@H](C)CCC(=O)[C@@H]1C`: 3.2 µM; for `C/C(=C\Cc1c(O)c(C=O)c(C)c(Cl)c1OC(=O)c1cccnc1)CC/C=C(\C)[C@@H]1CC(=O)C(C)(C)O1`: 10 µM; for `CC(/C=C/[C@@]1(C)[C@H](C)CCC(=O)[C@@H]1C)=C\Cc1c(O)c(C=O)c(C)c(Cl)c1OC(=O)CCCC(=O)O`: 0.6 µM.
On the same count and under the same terms, the value for `COc1c(C=O)c(C)c(Cl)c(OC(=O)c2cccnc2)c1C/C=C(C)/C=C/[C@@]1(C)[C@H](C)CCC(=O)[C@@H]1C` was 37 µM; that for `CC(/C=C/[C@@]1(C)[C@H](C)CCC(=O)[C@@H]1C)=C\Cc1c(O)c(C=O)c(C)c(Cl)c1OC(=O)c1ccncc1` was 10 µM; that for `COc1c(C=O)c(C)c(Cl)c(O)c1C/C=C(\C)CC/C=C(\C)[C@@H]1CC(=O)C(C)(C)O1` was 18 µM.
In the case of `CC(/C=C/[C@@]1(C)[C@H](C)CCC(=O)[C@@H]1C)=C\Cc1c(O)c(C=O)c(C)c(Cl)c1OC(=O)c1cccnc1`, the IC50 is 4.7 µM.
`COc1c(C=O)c(C)c(Cl)c(OCC(=O)O)c1C/C=C(C)/C=C/[C@@]1(C)[C@H](C)CCC(=O)[C@@H]1C` showed an IC50 of 56 µM.
On the same count and under the same terms, the same measure for `CC(/C=C/[C@@]1(C)[C@H](C)CCC(=O)[C@@H]1C)=C\Cc1c(O)c(C=O)c(C)c(Cl)c1OCC(=O)O`: 56 µM.
On the same count and under the same terms, the same measure for `COc1c(C=O)c(C)c(Cl)c(O)c1C/C=C(C)/C=C/[C@@]1(C)[C@H](C)CCC(=O)[C@@H]1C`: 5.6 µM.

A further series addresses T3, Estrogen receptor (Homo sapiens, UniProt P03372).
T3 sequence (P03372 whole entry): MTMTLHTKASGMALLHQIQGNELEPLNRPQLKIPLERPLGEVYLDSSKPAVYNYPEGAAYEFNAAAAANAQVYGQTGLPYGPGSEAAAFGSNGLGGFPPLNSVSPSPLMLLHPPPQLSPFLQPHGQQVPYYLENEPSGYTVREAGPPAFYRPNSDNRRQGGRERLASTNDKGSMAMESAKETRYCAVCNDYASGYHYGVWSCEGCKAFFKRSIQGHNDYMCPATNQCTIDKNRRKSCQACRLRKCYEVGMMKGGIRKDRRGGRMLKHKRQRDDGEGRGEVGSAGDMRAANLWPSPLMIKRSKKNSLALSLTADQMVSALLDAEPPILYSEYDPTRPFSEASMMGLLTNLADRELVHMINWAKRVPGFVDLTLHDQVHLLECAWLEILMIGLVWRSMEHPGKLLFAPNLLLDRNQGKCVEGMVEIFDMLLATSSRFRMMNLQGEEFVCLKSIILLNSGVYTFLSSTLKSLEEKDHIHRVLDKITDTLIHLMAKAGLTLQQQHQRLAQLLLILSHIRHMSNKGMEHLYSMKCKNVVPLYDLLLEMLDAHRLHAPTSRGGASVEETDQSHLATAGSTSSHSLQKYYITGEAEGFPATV
Put plainly: Minimum effective concentration required to activate Estrogen receptor 1 (ER alpha); Not detected.
For `Cc1c(Cl)c2c(c(O)c1C=O)CC(CC(C)(O)/C=C/[C@@]1(C)[C@H](C)CCC3(OCCO3)[C@@H]1C)O2` (stereo partly drawn), the MEC entry was “Not Active”.
Same read-out and setting: the same measure for `CCOC(=O)COc1c(Cl)c(C)c(C=O)c(OC)c1C/C=C(C)/C=C/[C@@]1(C)[C@H](C)CCC(=O)[C@@H]1C`: “Not Active”; for `C/C(=C\Cc1c(O)c(C=O)c(C)c(Cl)c1OC(=O)c1cccnc1)CC/C=C(\C)[C@@H]1CC(=O)C(C)(C)O1`: “Not Active”; for `CC(/C=C/[C@@]1(C)[C@H](C)CCC(=O)[C@@H]1C)=C\Cc1c(O)c(C=O)c(C)c(Cl)c1OC(=O)CCCC(=O)O`: “Not Active”.
Regarding `COc1c(C=O)c(C)c(Cl)c(OC(=O)c2cccnc2)c1C/C=C(C)/C=C/[C@@]1(C)[C@H](C)CCC(=O)[C@@H]1C`, the MEC entry is given as “Not Active”.
Same read-out and setting: the same measure for `CC(/C=C/[C@@]1(C)[C@H](C)CCC(=O)[C@@H]1C)=C\Cc1c(O)c(C=O)c(C)c(Cl)c1OC(=O)c1ccncc1`: “Not Active”; for `COc1c(C=O)c(C)c(Cl)c(O)c1C/C=C(\C)CC/C=C(\C)[C@@H]1CC(=O)C(C)(C)O1`: “Not Active”.
On the same count and under the same terms, the same measure for `CC(/C=C/[C@@]1(C)[C@H](C)CCC(=O)[C@@H]1C)=C\Cc1c(O)c(C=O)c(C)c(Cl)c1OC(=O)c1cccnc1`: “Not Active”; for `COc1c(C=O)c(C)c(Cl)c(OCC(=O)O)c1C/C=C(C)/C=C/[C@@]1(C)[C@H](C)CCC(=O)[C@@H]1C`: “Not Active”.
Turning to `CC(/C=C/[C@@]1(C)[C@H](C)CCC(=O)[C@@H]1C)=C\Cc1c(O)c(C=O)c(C)c(Cl)c1OCC(=O)O`, the MEC entry is “Not Active”.
Take `COc1c(C=O)c(C)c(Cl)c(O)c1C/C=C(C)/C=C/[C@@]1(C)[C@H](C)CCC(=O)[C@@H]1C`: the MEC entry was “Not Active”.

The target of a further series is Estrogen receptor beta (Homo sapiens, UniProt Q92731). Kind of series: Minimum effective concentration required to activate Estrogen receptor 2 (ER beta); Not detected.
Estrogen receptor beta, sequence (Q92731 whole entry): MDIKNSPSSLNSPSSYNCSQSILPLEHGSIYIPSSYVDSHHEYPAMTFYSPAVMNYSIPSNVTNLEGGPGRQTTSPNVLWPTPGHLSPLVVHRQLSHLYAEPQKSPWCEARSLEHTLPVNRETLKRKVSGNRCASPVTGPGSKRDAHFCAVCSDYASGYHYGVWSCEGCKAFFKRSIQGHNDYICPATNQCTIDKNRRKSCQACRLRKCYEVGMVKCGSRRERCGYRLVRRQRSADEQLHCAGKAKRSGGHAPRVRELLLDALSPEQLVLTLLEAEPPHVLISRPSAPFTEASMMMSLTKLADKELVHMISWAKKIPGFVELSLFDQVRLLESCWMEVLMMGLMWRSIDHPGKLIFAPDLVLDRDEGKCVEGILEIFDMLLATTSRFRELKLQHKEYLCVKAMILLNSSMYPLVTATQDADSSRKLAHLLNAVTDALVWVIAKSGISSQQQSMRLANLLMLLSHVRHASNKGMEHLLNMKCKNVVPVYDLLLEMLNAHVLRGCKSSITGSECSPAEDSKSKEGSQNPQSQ
On to `Cc1c(Cl)c2c(c(O)c1C=O)CC(CC(C)(O)/C=C/[C@@]1(C)[C@H](C)CCC3(OCCO3)[C@@H]1C)O2` (stereo partly drawn), for which the MEC entry is “Not Active”.
Still for that read-out and setting: the same measure for `CCOC(=O)COc1c(Cl)c(C)c(C=O)c(OC)c1C/C=C(C)/C=C/[C@@]1(C)[C@H](C)CCC(=O)[C@@H]1C`: “Not Active”; for `C/C(=C\Cc1c(O)c(C=O)c(C)c(Cl)c1OC(=O)c1cccnc1)CC/C=C(\C)[C@@H]1CC(=O)C(C)(C)O1`: “Not Active”.
On the same count and under the same terms, the value for `CC(/C=C/[C@@]1(C)[C@H](C)CCC(=O)[C@@H]1C)=C\Cc1c(O)c(C=O)c(C)c(Cl)c1OC(=O)CCCC(=O)O` was “Not Active”; that for `COc1c(C=O)c(C)c(Cl)c(OC(=O)c2cccnc2)c1C/C=C(C)/C=C/[C@@]1(C)[C@H](C)CCC(=O)[C@@H]1C` was “Not Active”.
For the compound `CC(/C=C/[C@@]1(C)[C@H](C)CCC(=O)[C@@H]1C)=C\Cc1c(O)c(C=O)c(C)c(Cl)c1OC(=O)c1ccncc1`, the MEC result is “Not Active”.
The same measure, in the same setting: the same measure for `COc1c(C=O)c(C)c(Cl)c(O)c1C/C=C(\C)CC/C=C(\C)[C@@H]1CC(=O)C(C)(C)O1`: “Not Active”.
Same read-out and setting: the value for `CC(/C=C/[C@@]1(C)[C@H](C)CCC(=O)[C@@H]1C)=C\Cc1c(O)c(C=O)c(C)c(Cl)c1OC(=O)c1cccnc1` was “Not Active”; that for `COc1c(C=O)c(C)c(Cl)c(OCC(=O)O)c1C/C=C(C)/C=C/[C@@]1(C)[C@H](C)CCC(=O)[C@@H]1C` was “Not Active”; that for `CC(/C=C/[C@@]1(C)[C@H](C)CCC(=O)[C@@H]1C)=C\Cc1c(O)c(C=O)c(C)c(Cl)c1OCC(=O)O` was “Not Active”.
In the case of `COc1c(C=O)c(C)c(Cl)c(O)c1C/C=C(C)/C=C/[C@@]1(C)[C@H](C)CCC(=O)[C@@H]1C`, the MEC entry is reported as “Not Active”.
